In PubChem BioAssay (NCI):
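GI50 = concentration required for 50% inhibition of growth. At the TGI there is no net growth.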

Legend:
Assay in all cases: inhibition of tumour cell growth, NCI panel, 384-well format
CCRF-CEM leukemia = test system: CCRF-CEM leukemia
MOLT-4 leukemia = test system: MOLT-4 leukemia
SN12C renal = test system: SN12C renal
COLO 205 colon = test system: COLO 205 colon
NCI-H226 lung = test system: NCI-H226 lung
NCI-H23 lung = test system: NCI-H23 lung
KM12 colon = test system: KM12 colon
MDA-MB-468 breast = test system: MDA-MB-468 breast
RXF 393 renal = test system: RXF 393 renal
NCI-H522 lung = test system: NCI-H522 lung
DU-145 prostate = test system: DU-145 prostate
ACHN renal = test system: ACHN renal
NCI/ADR-RES ovarian = test system: NCI/ADR-RES ovarian
NCI-H460 NSCLC = test system: NCI-H460 NSCLC
OVCAR-3 ovarian = test system: OVCAR-3 ovarian
OVCAR-8 ovarian = test system: OVCAR-8 ovarian
HCT-116 colon = test system: HCT-116 colon
HCC-2998 colon = test system: HCC-2998 colon
MDA-MB-435 melanoma = test system: MDA-MB-435 melanoma
HL-60(TB) leukemia = test system: HL-60(TB) leukemia
EKVX NSCLC = test system: EKVX NSCLC
SK-MEL-5 melanoma = test system: SK-MEL-5 melanoma
RPMI-8226 leukemia = test system: RPMI-8226 leukemia
SF-295 CNS = test system: SF-295 CNS
NCI-H322M lung = test system: NCI-H322M lung
CAKI-1 renal = test system: CAKI-1 renal
SW-620 colon = test system: SW-620 colon
LOX IMVI melanoma = test system: LOX IMVI melanoma
PC-3 prostate = test system: PC-3 prostate
BT-549 breast = test system: BT-549 breast
HCT-15 colon = test system: HCT-15 colon
HS 578T breast = test system: HS 578T breast
UACC-62 melanoma = test system: UACC-62 melanoma
HOP-62 NSCLC = test system: HOP-62 NSCLC
A498 renal = test system: A498 renal
U251 glioblastoma = test system: U251 glioblastoma
SF-539 CNS = test system: SF-539 CNS
HOP-92 NSCLC = test system: HOP-92 NSCLC
OVCAR-4 ovarian = test system: OVCAR-4 ovarian
SF-268 CNS = test system: SF-268 CNS
SNB-75 CNS = test system: SNB-75 CNS
A549 NSCLC = test system: A549 NSCLC
786-0 renal = test system: 786-0 renal
M14 melanoma = test system: M14 melanoma
IGROV1 ovarian = test system: IGROV1 ovarian
K-562 leukemia = test system: K-562 leukemia
SK-MEL-28 melanoma = test system: SK-MEL-28 melanoma
SK-OV-3 ovarian = test system: SK-OV-3 ovarian
MCF7 breast = test system: MCF7 breast
TK-10 renal = test system: TK-10 renal
UACC-257 melanoma = test system: UACC-257 melanoma
SK-MEL-2 melanoma = test system: SK-MEL-2 melanoma
MALME-3M melanoma = test system: MALME-3M melanoma
HT29 colon = test system: HT29 colon
SNB-19 CNS = test system: SNB-19 CNS

CN(C)C(=O)c1ccc(SC(=S)NCc2ccccc2)cc1
GI50 (CCRF-CEM leukemia): 1.63 µM
TGI (CCRF-CEM leukemia): 3.05 µM
GI50 (MOLT-4 leukemia): 1.64 µM
TGI (MOLT-4 leukemia): 3.09 µM
GI50 (SN12C renal): 2.45 µM
TGI (SN12C renal): 6.12 µM
GI50 (COLO 205 colon): 4.72 µM
TGI (COLO 205 colon): 15.1 µM
GI50 (NCI-H226 lung): 2.63 µM
TGI (NCI-H226 lung): 6.33 µM
GI50 (NCI-H23 lung): 3.17 µM
TGI (NCI-H23 lung): 8.36 µM
GI50 (KM12 colon): 1.67 µM
TGI (KM12 colon): 8.91 µM
GI50 (MDA-MB-468 breast): 0.701 µM
TGI (MDA-MB-468 breast): 1.33 µM
GI50 (RXF 393 renal): 1.83 µM
TGI (RXF 393 renal): 3.34 µM
GI50 (NCI-H522 lung): 3.18 µM
TGI (NCI-H522 lung): 7.34 µM
GI50 (DU-145 prostate): 5.09 µM
TGI (DU-145 prostate): 15 µM
GI50 (ACHN renal): 3.24 µM
TGI (ACHN renal): 8.66 µM
GI50 (NCI/ADR-RES ovarian): 2.96 µM
TGI (NCI/ADR-RES ovarian): 6.23 µM
GI50 (NCI-H460 NSCLC): 2.73 µM
TGI (NCI-H460 NSCLC): 6.45 µM
GI50 (OVCAR-3 ovarian): 3.8 µM
TGI (OVCAR-3 ovarian): 11.4 µM
GI50 (OVCAR-8 ovarian): 2.15 µM
TGI (OVCAR-8 ovarian): 4.31 µM
GI50 (HCT-116 colon): 3.51 µM
TGI (HCT-116 colon): 8.81 µM
GI50 (HCC-2998 colon): 4.77 µM
TGI (HCC-2998 colon): 13.6 µM
GI50 (MDA-MB-435 melanoma): 2.23 µM
TGI (MDA-MB-435 melanoma): 5.21 µM
GI50 (HL-60(TB) leukemia): 0.364 µM
TGI (HL-60(TB) leukemia): 1.15 µM
GI50 (EKVX NSCLC): 13.4 µM
TGI (EKVX NSCLC): 26.3 µM
GI50 (SK-MEL-5 melanoma): 1.91 µM
TGI (SK-MEL-5 melanoma): 3.38 µM
GI50 (RPMI-8226 leukemia): 0.458 µM
TGI (RPMI-8226 leukemia): 1.22 µM
GI50 (SF-295 CNS): 12.1 µM
TGI (SF-295 CNS): 24.6 µM
GI50 (NCI-H322M lung): 5.05 µM
TGI (NCI-H322M lung): 15.7 µM
GI50 (CAKI-1 renal): 2.92 µM
TGI (CAKI-1 renal): 9.76 µM
GI50 (SW-620 colon): 2.87 µM
TGI (SW-620 colon): 10.1 µM
GI50 (LOX IMVI melanoma): 2.07 µM
TGI (LOX IMVI melanoma): 4.09 µM
GI50 (PC-3 prostate): 3.64 µM
TGI (PC-3 prostate): 9.17 µM
GI50 (BT-549 breast): 2.39 µM
TGI (BT-549 breast): 4.6 µM
GI50 (HCT-15 colon): 1.9 µM
TGI (HCT-15 colon): 3.53 µM
GI50 (HS 578T breast): 2.77 µM
TGI (HS 578T breast): 5.81 µM
GI50 (UACC-62 melanoma): 2.09 µM
TGI (UACC-62 melanoma): 3.61 µM
GI50 (HOP-62 NSCLC): 1.9 µM
TGI (HOP-62 NSCLC): 3.87 µM
GI50 (A498 renal): 3.78 µM
TGI (A498 renal): 10.3 µM
GI50 (U251 glioblastoma): 3.55 µM
TGI (U251 glioblastoma): 9.29 µM
GI50 (SF-539 CNS): 1.77 µM
TGI (SF-539 CNS): 3.29 µM
GI50 (HOP-92 NSCLC): 2.72 µM
TGI (HOP-92 NSCLC): 7.17 µM
GI50 (OVCAR-4 ovarian): 15.7 µM
TGI (OVCAR-4 ovarian): 29.2 µM
GI50 (SF-268 CNS): 3.83 µM
TGI (SF-268 CNS): 10.8 µM
GI50 (SNB-75 CNS): 4.09 µM
TGI (SNB-75 CNS): 7.63 µM
GI50 (A549 NSCLC): 7.98 µM
TGI (A549 NSCLC): 21 µM
GI50 ([…]-0 renal): 1.99 µM
TGI (786-0 renal): 3.6 µM
GI50 (M14 melanoma): 2.36 µM
TGI (M14 melanoma): 5.32 µM
GI50 (IGROV1 ovarian): 2.48 µM
TGI (IGROV1 ovarian): 6.77 µM
GI50 (K-562 leukemia): 10.6 µM
TGI (K-562 leukemia): 22.5 µM
GI50 (SK-MEL-28 melanoma): 2.52 µM
TGI (SK-MEL-28 melanoma): 4.91 µM
GI50 (SK-OV-3 ovarian): 6.26 µM
TGI (SK-OV-3 ovarian): 18.1 µM
GI50 (MCF7 breast): 2.36 µM
TGI (MCF7 breast): 10.6 µM
GI50 (TK-10 renal): 2.87 µM
TGI (TK-10 renal): 6.13 µM
GI50 (UACC-257 melanoma): 2.9 µM
TGI (UACC-257 melanoma): 5.66 µM
GI50 (SK-MEL-2 melanoma): 1.54 µM
TGI (SK-MEL-2 melanoma): 2.98 µM
GI50 (MALME-3M melanoma): 3.15 µM
TGI (MALME-3M melanoma): 5.52 µM
GI50 (HT29 colon): 1.8 µM
TGI (HT29 colon): 3.25 µM
GI50 (SNB-19 CNS): 3.37 µM
TGI (SNB-19 CNS): 9.21 µM
